In brackets after ≈: the same amount, converted by molar mass. Entries after “also recorded” stand apart in the source; their conditions may differ.
Key:
[1] = system: K. pneumoniae ATCC 700603; test: MIC and MBC testing, broth microdilution; type: cell-based, Klebsiella pneumoniae; conditions: Klebsiella pneumoniae
Procedure, shortened: (§1)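 Log-phase cultures diluted in Mueller-Hinton broth to 1 × 10^6 CFU/mL were exposed to doubling dilutions of DMSO-dissolved compounds at 37 °C for 18 h, each concentration in triplicate. Lowest concentration lacking visible growth recorded as MIC; controls were levofloxacin and 0.1% DMSO.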

sheep red blood cells = test: Hemolytic activity; type: cell-based
Procedure: The hemolysis of compound 2D was determined by its ability to lyse sheep red blood cells. The results were expressed as the HC50 value (the concentration at which 50% of red blood cells were lysed).
The sterile defibrillated sheep blood cells were centrifuged (5000 rpm, 5 min) and then washed three times with 0.9% saline. Subsequently, 1 μL of different concentrations of 2D (0.5–128 μg/mL) was mixed with 999 μL of red blood cell suspension. After incubation at 37 °C for 1 h, the mixed solution was centrifuged. The absorbance of the supernatant at 570 nm was measured. Triton X-100 (0.1%) was used as a positive control, and DMSO was used as a negative control. The hemolysis rate was calculated according to the following formula:Hemolysis rate (%) = (ODTreatment − ODNegative)/(ODPositive − ODNegative) × 100%(1)

[2] = system: clinical S. aureus isolate LMY48; test: MIC and MBC testing, broth microdilution; type: cell-based, Staphylococcus aureus; conditions: Staphylococcus aureus, LMY48
Procedure, shortened: (§2)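 Triplicate broth microdilution: MH broth, serial 2× dilution of compounds dissolved in DMSO, 1 × 10^6 CFU/mL bacteria grown to log phase, 18 h at 37 °C, followed by MBC determination.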

MRSA-1 = test: MIC and MBC testing, broth microdilution; type: cell-based, Staphylococcus aureus; conditions: Staphylococcus aureus, MRSA-1
Procedure, shortened: as §2

[3] = system: clinical S. aureus isolate LMY45; test: MIC and MBC testing, broth microdilution; type: cell-based, Staphylococcus aureus; conditions: Staphylococcus aureus, LMY45
Procedure, shortened: as §2

MRSA-2 [4] = test: MIC and MBC testing, broth microdilution; type: cell-based, Staphylococcus aureus; conditions: Staphylococcus aureus, MRSA-2
Procedure, shortened: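 Broth microdilution in MH broth; two-fold serial dilutions of DMSO-dissolved compound; inoculum 1 × 10^6 CFU/mL from log-phase culture; 37 °C, 18 h; triplicates; MBC also read.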

S. aureus (ATCC 29213) = test: Growth curve (OD600); type: cell-based, Staphylococcus aureus; conditions: 2D 0.5, 1, 2, 4, 8 µg/mL, vancomycin 0.5 and 1 μg/mL
Procedure: (§3) The growth inhibition and time-dependent killing abilities of 2D were evaluated against S. aureus (ATCC 29213) and MRSA-2. After culturing the strains in MH broth until the logarithmic growth phase, they were diluted with MH broth to 1 × 10^6 CFU/mL. […] OD600 values were measured at predetermined time intervals (0, 1, 2, 4, 6, 8, 10, 12, and 24 h).

MRSA-2 [5] = test: Growth curve (OD600); type: cell-based, Staphylococcus aureus; conditions: 2D 0.5, 1, 2, 4, 8 µg/mL, vancomycin 0.5 and 1 μg/mL
Procedure: as §3

E. faecium ATCC 35667 = test: MIC and MBC testing, broth microdilution; type: cell-based, Enterococcus faecium; conditions: Enterococcus faecium, ATCC35667, E. faecium ATCC 35667
Procedure, shortened: as §1

MRSA-2 [6] = test: MRSA-induced mouse skin abscess model; type: in vivo
From the text: The MRSA-induced mouse skin abscess model was used to assess the in vivo antibacterial effects of 2D. Female KM mice, aged 4–6 weeks and weighing 20 ± 2 g, were purchased from the Laboratory Animal Center, Lanzhou Institute of Veterinary Medicine, Chinese Academy of Agricultural Sciences. The animal experiments were approved by the Ethics Committee of Research Involving Animals of the Lanzhou Institute of Husbandry and Pharmaceutical Science of CAAS (Approval number: 2025-03) and performed in accordance with the guidelines of the Ethics Committee for Animal Experiments. Prior to the formal experiment, all mice were acclimated for 5 days. The mice were kept in a pathogen-free environment with a 12 h light/12 h dark cycle, 50% ± 10% humidity, and a temperature of 24 °C ± 2 °C. […] The depilation method employed was as follows: depilatory paste was applied to the designated area for 10 min, after which it was thoroughly washed with 0.9% saline. The mice were semi-anesthetized by intraperitoneal injection with sodium Ulatan (TCI, 20%, 100 μL). […] After a 24 h interval, the administration was repeated, and 24 h after the last administration, the volume of abscess was measured and calculated. Then, the skin of the infected site and main organs were collected for tissue bacterial load and pathological detection.

- MIC ([1]; ATCC700603, 18 h, read-out: MIC): 16 µg/mL (≈ 50.6 µM)
- MIC ([2]; 18 h, read-out: MIC): 2 µg/mL (≈ 6.32 µM)
- MIC (MRSA-1; 18 h, read-out: MIC): 1 µg/mL (≈ 3.16 µM)
- MIC ([3]; 18 h, read-out: MIC): 2 µg/mL (≈ 6.32 µM)
- MIC (MRSA-2 [4]; 18 h, read-out: MIC): 1 µg/mL (≈ 3.16 µM)
- MIC (E. faecium ATCC 35667; 18 h, read-out: MIC): 2 µg/mL (≈ 6.32 µM)
Compound: [H]/N=C(\N)NN=C1CCCc2cc(OCCCCCCC)ccc21 [Compound 2D, (E)-2-(6-(heptyloxy)-3,4-dihydronaphthalen-1(2H)-ylidene)hydrazine-1-carboximidamide]
- MBC ([1]; ATCC700603, read-out: MBC): 32 µg/mL (≈ 101 µM)
- Selectivity index (SI) (sheep red blood cells; SI = HC50/MIC ATCC 29213): 101.30
- HC50 (sheep red blood cells; sheep red blood cells, 37 °C, 1 h): 50.65 µg/mL
- MBC ([2]; read-out: MBC): 2 µg/mL (≈ 6.32 µM)
- MBC (MRSA-1; read-out: MBC): 16 µg/mL (≈ 50.6 µM)
- MBC ([3]; read-out: MBC): 2 µg/mL (≈ 6.32 µM)
- MBC (MRSA-2 [4]; read-out: MBC): 4 µg/mL (≈ 12.6 µM)
- growth inhibition (growth curve) (S. aureus (ATCC 29213)): able to suppress the growth
- growth inhibition (growth curve) (MRSA-2 [5]): able to suppress the growth
- MBC (E. faecium ATCC 35667; read-out: MBC): 4 µg/mL (≈ 12.6 µM)
- purulent lesions at the infection site (skin histopathology) (MRSA-2 [6]; 5 mg/kg): significantly smaller
- volume of skin abscess (MRSA-2 [6]; 5 mg/kg, injected 2 h and 24 h postinfection, compared to model and solvent group): reduced volume
- purulent foci (skin histopathology) (MRSA-2 [6]; 10 mg/kg): almost no purulent foci
- skin abscess appearance (MRSA-2 [6]; 10 mg/kg, injected 2 h and 24 h postinfection): devoid of any discernible abscesses
- bacterial load of the skin at the infected site (MRSA-2 [6]; 2D 5 and 10 mg/kg, vancomycin 5 mg/kg, compared with model and solvent group): decreased bacterial load; also recorded: significantly reduced
- histopathology of the major organs (MRSA-2 [6]; infected mice after treatment, H&E): no discernible lesions

From PMC12250302, “Synthesis, Antimicrobial Activities, and Model of Action of Novel Tetralone Derivatives Containing Aminoguanidinium Moiety” (International Journal of Molecular Sciences, 2025)
